Key:
Type in all cases: cell-based
[1] = test system: human non small cell lung cancer (NCI-H460) cell line; assay: Inhibition of tumour cell proliferation in vitro ([3H]thymidine incorporation), NCI-H460; details: NCI-H460 cells, cultured 24 hours with compound, DNA synthesis by [3H]thymidine incorporation
Procedure: (§1) The inhibition of tumour cell proliferation was studied using different types of human cancer cell lines. The cell lines under investigation were small cell lung carcinoma (NYH), non small cell lung carcinoma (NCI-H460), and breast cancer (MCF-7) using the following general procedure:
(§2) The cells were cultured in vitro for 24 hours in the presence of the compound under investigation. DNA synthesis was measured by incorporation of [3H]thymidine, and the median inhibitory concentrations (IC50) of the compounds were calculated.

[2] = test system: human breast cancer (MCF-7) cell line; assay: Inhibition of tumour cell proliferation in vitro ([3H]thymidine incorporation), MCF-7; details: MCF7, MCF-7 cells, cultured 24 hours with compound, DNA synthesis by [3H]thymidine incorporation
Procedure: as §1, §2

[3] = test system: human small cell lung carcinoma (NYH) cell line; assay: Inhibition of tumour cell proliferation in vitro ([3H]thymidine incorporation), NYH; details: NYH cells, cultured 24 hours with compound, DNA synthesis by [3H]thymidine incorporation
Procedure: as §1, §2

Row | IC50 [1] [nM] | IC50 [2] [nM] | IC50 [3] [nM] | SMILES
1 | 66 | 57 | 6.2 | N#CNC(=Nc1ccncc1)NCCCCCCNC(=O)c1ccccc1 [Example No. 2, N-(6-Benzoylaminohexyl)-N′-cyano-N″-4-pyridylguanidine]
2 |  | 2.2 | 1.7 | N#CNC(=Nc1ccncc1)NCCCCCCOC(=O)c1ccc(Cl)cc1 [Example No. 4, N-(6-(4-Chlorobenzoyloxy)hexyl)-N′-cyano-N″-4-pyridylguanidine]

— patent US6346541B1, “Cyanoguanidines as cell proliferation inhibitors” (Leo Pharmaceutical Products Ltd. A/S, priority 1997, dated 2002)
